From ChEMBL document CHEMBL1135161, “Antimalarial activities of ring-substituted bioimidazoles” (Bioorg Med Chem Lett, 2002)
Activity calls are given as the source filed them. The rule behind the calls is not given here.

Key:
[1] = test system: Plasmodium falciparum; assay: In vitro antimalarial activity against chloroquine-sensitive Plasmodium falciparum; format: functional, organism-based
[2] = test system: Mus musculus; assay: In vivo antimalarial activity of compound against Plasmodium berghei infected in mice (Mus musculus) model; Inactive; format: functional, organism-based
[3] = test system: Plasmodium falciparum; assay: In vitro antimalarial activity against chloroquine-resistant Plasmodium falciparum; format: functional, organism-based
[4] = test system: Mus musculus; assay: In vivo antimalarial activity of compound against Plasmodium berghei infected in mice (Mus musculus) model. Compound active at given dose.; format: functional

Structure (SMILES): Cn1c(CC(N)C(=O)O)cnc1C(C)(C)C (stereo not given)
- IC50 [1]: > 500 µM

Structure (SMILES): CC(C)(C)c1nc(CC(N)C(=O)O)c[nH]1 (stereo not given)
- DOSE [2]: inactive
- IC50 [1]: 25.8 µM
- IC50 [3]: 3.85 µM

Structure (SMILES): NC(Cc1cn(Cc2ccccc2)cn1)C(=O)O (stereo not given)
- IC50 [1]: 360 µM

Structure (SMILES): CC(C)(C)c1nc(CC(N)C(=O)O)cn1Cc1ccccc1 (stereo not given)
- IC50 [1]: 157 µM

Structure (SMILES): CCn1cnc(CCN)c1
- IC50 [1]: > 500 µM

Structure (SMILES): Cn1cc(CCN)nc1C(C)(C)C
- IC50 [1]: 459 µM

Structure (SMILES): Cc1ncc(CCN)[nH]1 [2-METHYLHISTAMINE]
- IC50 [1]: > 500 µM

Structure (SMILES): CC(C)c1nc(CC(N)C(=O)O)cn1C (stereo not given)
- IC50 [1]: > 500 µM

Structure (SMILES): Cn1cc(CC(N)C(=O)O)nc1C(C)(C)C (stereo not given)
- IC50 [1]: > 500 µM

Structure (SMILES): NC(Cc1c[nH]c(C2CCC2)n1)C(=O)O (stereo not given)
- IC50 [1]: 255 µM

Structure (SMILES): CC(C)(C)c1ncc(CC(N)C(=O)O)n1Cc1ccccc1 (stereo not given)
- IC50 [1]: 399 µM

Structure (SMILES): CC(C)(C)c1ncc(CCN)n1Cc1ccccc1
- IC50 [1]: 233 µM

Structure (SMILES): NCCc1cnc(C2CCCCC2)n1Cc1ccccc1
- IC50 [1]: > 500 µM

Structure (SMILES): CC(C)n1cnc(CCN)c1
- Dose [4]: 100 mg/kg
- IC50 [1]: 9.6 µM
- IC50 [3]: 10.4 µM

Structure (SMILES): CC(C)c1nc(CC(N)C(=O)O)c[nH]1 (stereo not given)
- Dose [4]: 100 mg/kg
- IC50 [1]: 6.3 µM
- IC50 [3]: 6.5 µM

Structure (SMILES): CCc1nc(CC(N)C(=O)O)c[nH]1 (stereo not given)
- IC50 [1]: > 500 µM

Structure (SMILES): NCCc1c[nH]c(C2CCCC2)n1
- IC50 [1]: 489 µM

Structure (SMILES): CC(C)c1nc(CCN)c[nH]1
- Dose [4]: 100 mg/kg
- IC50 [1]: 4.7 µM
- IC50 [3]: 4.8 µM

Structure (SMILES): NC(Cc1cnc(C2CCCCC2)n1Cc1ccccc1)C(=O)O (stereo not given)
- IC50 [1]: > 500 µM

Structure (SMILES): NCCc1cnc(C23CC4CC(CC(C4)C2)C3)n1Cc1ccccc1
- IC50 [1]: > 500 µM

Structure (SMILES): CCn1cnc(CC(N)C(=O)O)c1 (stereo not given)
- IC50 [1]: > 500 µM

Structure (SMILES): Cn1cc(CC(N)C(=O)O)nc1C1CCCCC1 (stereo not given)
- IC50 [1]: > 500 µM

Structure (SMILES): NCCc1c[nH]c(C2CCCCC2)n1
- IC50 [1]: > 500 µM

Structure (SMILES): NC(Cc1c[nH]c(C2CCCCC2)n1)C(=O)O (stereo not given)
- IC50 [1]: 350 µM

Structure (SMILES): CC(C)(C)c1nc(CCN)c[nH]1
- DOSE [2]: inactive
- IC50 [1]: 15.5 µM
- IC50 [3]: 30.3 µM

Structure (SMILES): NC(Cc1c[nH]c(C23CC4CC(CC(C4)C2)C3)n1)C(=O)O (stereo not given)
- IC50 [1]: 450 µM

Structure (SMILES): CC(C)c1ncc(CCN)n1Cc1ccccc1
- IC50 [1]: 188 µM

Structure (SMILES): NC(Cc1c[nH]c(C2CCCC2)n1)C(=O)O (stereo not given)
- IC50 [1]: 276 µM

Structure (SMILES): NCCc1cn(Cc2ccccc2)cn1
- DOSE [2]: inactive
- IC50 [1]: 20.7 µM
- IC50 [3]: 22.5 µM

Structure (SMILES): CC(C)c1nc(CCN)cn1C
- IC50 [1]: 387 µM

Structure (SMILES): Cn1cnc(CC(N)C(=O)O)c1 (stereo not given)
- IC50 [1]: > 500 µM

Structure (SMILES): NCCc1c[nH]c(C2CCC2)n1
- IC50 [1]: 367 µM

Structure (SMILES): Cn1cc(CCN)nc1C1CCCCC1
- IC50 [1]: > 500 µM

Structure (SMILES): Cn1cnc(CCN)c1 [N-METHYLHISTAMINE]
- IC50 [1]: > 500 µM

Structure (SMILES): CC(C)c1nc(CC(N)C(=O)O)cn1Cc1ccccc1 (stereo not given)
- DOSE [2]: inactive
- IC50 [1]: 89 µM
- IC50 [3]: 245 µM

Structure (SMILES): NC(Cc1cnc(C23CC4CC(CC(C4)C2)C3)n1Cc1ccccc1)C(=O)O (stereo not given)
- IC50 [1]: > 500 µM

Structure (SMILES): CC(C)n1cnc(CC(N)C(=O)O)c1 (stereo not given)
- IC50 [1]: 120 µM

Structure (SMILES): Cc1nc(CC(N)C(=O)O)c[nH]1 (stereo not given)
- IC50 [1]: > 500 µM

Structure (SMILES): C=CCn1cnc(CCN)c1
- IC50 [1]: 176 µM

Structure (SMILES): CC(C)c1ncc(CC(N)C(=O)O)n1Cc1ccccc1 (stereo not given)
- IC50 [1]: 355 µM

Structure (SMILES): CCc1nc(CCN)c[nH]1
- IC50 [1]: > 500 µM
